Measured values as given in ChEMBL document CHEMBL1681705, “Optimisation of ITK inhibitors through successive iterative design cycles” (Bioorg Med Chem Lett, 2011).

Key:
[1] = biological target: T1, Mitogen-activated protein kinase 12 (Homo sapiens) (UniProt P53778); assay: Inhibition of SAPK3 at 1 uM
T1 sequence (whole entry): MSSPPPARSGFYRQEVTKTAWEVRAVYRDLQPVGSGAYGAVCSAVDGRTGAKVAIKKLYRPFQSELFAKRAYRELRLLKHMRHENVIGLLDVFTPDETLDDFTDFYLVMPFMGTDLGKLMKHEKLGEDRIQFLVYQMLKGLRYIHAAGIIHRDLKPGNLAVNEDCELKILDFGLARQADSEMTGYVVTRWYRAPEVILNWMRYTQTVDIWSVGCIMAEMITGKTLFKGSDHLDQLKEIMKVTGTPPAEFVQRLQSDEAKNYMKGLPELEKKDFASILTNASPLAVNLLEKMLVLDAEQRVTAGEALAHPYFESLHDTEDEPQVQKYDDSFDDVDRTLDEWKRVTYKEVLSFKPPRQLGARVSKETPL

[2] = biological target: T2, Serine/threonine-protein kinase D2 (Homo sapiens) (UniProt Q9BZL6); assay: Inhibition of PKD2 at 1 uM; values are per cent of control
T2 sequence (whole entry): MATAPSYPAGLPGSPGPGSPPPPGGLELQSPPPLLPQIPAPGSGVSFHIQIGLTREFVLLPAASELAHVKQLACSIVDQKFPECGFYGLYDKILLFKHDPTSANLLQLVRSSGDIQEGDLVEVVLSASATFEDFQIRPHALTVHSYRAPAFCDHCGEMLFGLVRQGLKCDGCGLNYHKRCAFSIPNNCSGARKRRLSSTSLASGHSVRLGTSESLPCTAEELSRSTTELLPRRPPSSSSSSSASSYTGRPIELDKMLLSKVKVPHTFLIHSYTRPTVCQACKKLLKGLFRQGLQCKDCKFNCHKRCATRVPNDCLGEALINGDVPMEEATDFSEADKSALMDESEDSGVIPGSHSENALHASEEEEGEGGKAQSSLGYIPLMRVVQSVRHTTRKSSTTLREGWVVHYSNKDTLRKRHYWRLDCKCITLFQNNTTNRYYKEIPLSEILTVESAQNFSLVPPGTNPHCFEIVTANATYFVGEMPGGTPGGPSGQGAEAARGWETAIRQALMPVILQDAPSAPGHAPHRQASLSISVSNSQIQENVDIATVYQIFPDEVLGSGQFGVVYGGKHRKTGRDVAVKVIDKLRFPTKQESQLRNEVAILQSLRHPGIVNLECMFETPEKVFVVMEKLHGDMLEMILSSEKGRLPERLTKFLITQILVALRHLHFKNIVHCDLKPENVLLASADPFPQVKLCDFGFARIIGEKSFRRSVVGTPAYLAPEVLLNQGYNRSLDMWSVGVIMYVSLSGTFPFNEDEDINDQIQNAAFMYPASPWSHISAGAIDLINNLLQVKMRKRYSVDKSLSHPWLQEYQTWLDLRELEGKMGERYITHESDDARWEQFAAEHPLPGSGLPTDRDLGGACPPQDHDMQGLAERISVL

[3] = Inhibition of PKA at 0.1 uM; values are per cent of control
[4] = biological target: Proto-oncogene tyrosine-protein kinase receptor Ret (Homo sapiens) (UniProt P07949); assay: Inhibition of Ret at 0.1 uM; values are per cent of control
[5] = biological target: Mitogen-activated protein kinase 10 (Homo sapiens) (UniProt P53779); assay: Inhibition of JNK3 at 0.1 uM; values are per cent of control
[6] = biological target: RAF proto-oncogene serine/threonine-protein kinase (Homo sapiens) (UniProt P04049); assay: Inhibition of c-RAF at 0.1 uM; values are per cent of control
[7] = biological target: Proto-oncogene tyrosine-protein kinase Src (Homo sapiens) (UniProt P12931); assay: Inhibition of c-SRC at 0.1 uM; values are per cent of control
[8] = biological target: T3, Ephrin type-B receptor 1 (Homo sapiens) (UniProt P54762); assay: Inhibition of EphB1 at 0.1 uM; values are per cent of control
T3 sequence (whole entry): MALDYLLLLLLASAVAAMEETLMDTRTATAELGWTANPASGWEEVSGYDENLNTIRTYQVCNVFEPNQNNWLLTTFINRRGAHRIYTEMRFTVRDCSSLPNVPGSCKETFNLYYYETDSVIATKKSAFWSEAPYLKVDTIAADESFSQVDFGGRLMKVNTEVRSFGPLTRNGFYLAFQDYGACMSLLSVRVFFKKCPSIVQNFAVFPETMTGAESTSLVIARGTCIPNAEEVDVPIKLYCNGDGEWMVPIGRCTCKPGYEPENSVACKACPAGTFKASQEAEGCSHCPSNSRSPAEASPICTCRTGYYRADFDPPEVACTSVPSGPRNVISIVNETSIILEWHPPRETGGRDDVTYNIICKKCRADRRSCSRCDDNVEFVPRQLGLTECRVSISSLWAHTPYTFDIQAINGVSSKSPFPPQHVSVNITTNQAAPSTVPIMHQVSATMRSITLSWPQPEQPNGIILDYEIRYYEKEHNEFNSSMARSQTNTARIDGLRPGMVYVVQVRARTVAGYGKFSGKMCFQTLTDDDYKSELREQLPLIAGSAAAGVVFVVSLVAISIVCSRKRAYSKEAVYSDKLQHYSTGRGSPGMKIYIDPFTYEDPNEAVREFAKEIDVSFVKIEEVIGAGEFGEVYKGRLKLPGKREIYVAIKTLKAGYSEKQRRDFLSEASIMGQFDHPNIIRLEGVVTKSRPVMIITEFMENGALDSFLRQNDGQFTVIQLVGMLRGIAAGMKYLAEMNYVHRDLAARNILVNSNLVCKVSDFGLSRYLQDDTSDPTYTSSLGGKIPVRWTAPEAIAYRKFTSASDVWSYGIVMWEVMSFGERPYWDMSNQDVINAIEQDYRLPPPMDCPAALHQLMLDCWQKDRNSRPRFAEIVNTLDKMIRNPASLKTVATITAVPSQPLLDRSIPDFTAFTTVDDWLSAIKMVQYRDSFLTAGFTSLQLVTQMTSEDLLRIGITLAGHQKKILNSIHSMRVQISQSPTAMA

[9] = biological target: Serine/threonine-protein kinase 33 (Homo sapiens) (UniProt Q9BYT3); assay: Inhibition of STK33 at 0.1 uM; values are per cent of control
[10] = biological target: Glycogen synthase kinase-3 beta (Homo sapiens) (UniProt P49841); assay: Inhibition of GSK3-beta at 0.1 uM; values are per cent of control
Glycogen synthase kinase-3 beta (Homo sapiens), sequence (P49841 whole entry, looked up): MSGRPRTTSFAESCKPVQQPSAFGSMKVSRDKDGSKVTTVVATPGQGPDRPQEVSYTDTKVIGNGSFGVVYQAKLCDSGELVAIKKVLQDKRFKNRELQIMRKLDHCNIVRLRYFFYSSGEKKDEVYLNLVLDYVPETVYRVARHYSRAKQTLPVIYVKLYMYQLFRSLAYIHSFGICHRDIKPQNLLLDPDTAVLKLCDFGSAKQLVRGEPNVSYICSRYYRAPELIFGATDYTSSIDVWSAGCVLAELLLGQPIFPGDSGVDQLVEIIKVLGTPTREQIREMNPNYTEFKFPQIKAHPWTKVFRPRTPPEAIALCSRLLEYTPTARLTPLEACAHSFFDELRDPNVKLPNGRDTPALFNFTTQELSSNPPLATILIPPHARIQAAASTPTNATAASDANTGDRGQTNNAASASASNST

Proto-oncogene tyrosine-protein kinase Src (Homo sapiens), sequence (P12931 2-536 limits assumed): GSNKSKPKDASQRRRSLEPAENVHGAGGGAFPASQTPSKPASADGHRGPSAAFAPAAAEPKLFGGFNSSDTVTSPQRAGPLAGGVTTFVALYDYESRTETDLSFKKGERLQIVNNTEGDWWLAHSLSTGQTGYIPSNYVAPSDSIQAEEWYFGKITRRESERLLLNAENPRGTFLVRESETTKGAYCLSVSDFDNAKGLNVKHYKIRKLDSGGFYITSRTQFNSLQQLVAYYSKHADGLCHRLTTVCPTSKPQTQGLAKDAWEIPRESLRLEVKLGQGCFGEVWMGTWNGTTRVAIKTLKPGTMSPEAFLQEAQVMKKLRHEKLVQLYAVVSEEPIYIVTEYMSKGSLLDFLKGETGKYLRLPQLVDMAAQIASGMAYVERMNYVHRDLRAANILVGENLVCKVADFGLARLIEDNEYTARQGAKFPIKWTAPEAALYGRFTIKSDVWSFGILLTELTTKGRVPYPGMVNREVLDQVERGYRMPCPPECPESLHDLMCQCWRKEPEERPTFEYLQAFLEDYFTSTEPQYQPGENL
Proto-oncogene tyrosine-protein kinase receptor Ret (Homo sapiens), sequence (P07949 whole entry): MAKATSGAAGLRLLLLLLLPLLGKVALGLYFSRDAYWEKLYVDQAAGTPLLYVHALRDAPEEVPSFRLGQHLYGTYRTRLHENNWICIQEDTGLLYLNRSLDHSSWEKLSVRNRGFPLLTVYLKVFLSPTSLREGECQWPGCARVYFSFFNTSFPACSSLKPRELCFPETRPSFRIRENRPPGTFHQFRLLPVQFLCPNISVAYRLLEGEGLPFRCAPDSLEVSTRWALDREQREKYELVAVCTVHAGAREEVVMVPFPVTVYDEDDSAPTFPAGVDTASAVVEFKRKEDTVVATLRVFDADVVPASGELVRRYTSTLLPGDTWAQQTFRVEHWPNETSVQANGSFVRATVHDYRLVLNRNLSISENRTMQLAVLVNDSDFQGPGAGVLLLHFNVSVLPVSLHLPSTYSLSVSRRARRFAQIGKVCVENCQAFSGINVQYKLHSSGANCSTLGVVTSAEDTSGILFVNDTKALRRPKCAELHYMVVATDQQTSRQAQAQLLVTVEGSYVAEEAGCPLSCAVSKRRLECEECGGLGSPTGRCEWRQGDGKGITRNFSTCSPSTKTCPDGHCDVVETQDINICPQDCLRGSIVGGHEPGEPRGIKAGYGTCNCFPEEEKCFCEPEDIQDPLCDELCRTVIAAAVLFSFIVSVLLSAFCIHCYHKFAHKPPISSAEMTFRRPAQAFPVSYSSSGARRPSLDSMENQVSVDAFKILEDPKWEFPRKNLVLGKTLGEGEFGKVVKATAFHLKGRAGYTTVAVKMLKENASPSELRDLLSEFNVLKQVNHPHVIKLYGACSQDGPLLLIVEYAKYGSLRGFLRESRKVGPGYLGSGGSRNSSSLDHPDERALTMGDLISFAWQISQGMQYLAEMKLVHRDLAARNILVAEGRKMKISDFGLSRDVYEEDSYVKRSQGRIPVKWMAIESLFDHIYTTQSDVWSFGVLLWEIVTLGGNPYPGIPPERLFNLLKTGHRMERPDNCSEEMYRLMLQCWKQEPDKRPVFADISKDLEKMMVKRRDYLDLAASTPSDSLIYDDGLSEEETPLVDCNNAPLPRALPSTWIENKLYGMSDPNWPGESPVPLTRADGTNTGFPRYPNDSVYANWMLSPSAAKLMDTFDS
RAF proto-oncogene serine/threonine-protein kinase (Homo sapiens), sequence (P04049 whole entry): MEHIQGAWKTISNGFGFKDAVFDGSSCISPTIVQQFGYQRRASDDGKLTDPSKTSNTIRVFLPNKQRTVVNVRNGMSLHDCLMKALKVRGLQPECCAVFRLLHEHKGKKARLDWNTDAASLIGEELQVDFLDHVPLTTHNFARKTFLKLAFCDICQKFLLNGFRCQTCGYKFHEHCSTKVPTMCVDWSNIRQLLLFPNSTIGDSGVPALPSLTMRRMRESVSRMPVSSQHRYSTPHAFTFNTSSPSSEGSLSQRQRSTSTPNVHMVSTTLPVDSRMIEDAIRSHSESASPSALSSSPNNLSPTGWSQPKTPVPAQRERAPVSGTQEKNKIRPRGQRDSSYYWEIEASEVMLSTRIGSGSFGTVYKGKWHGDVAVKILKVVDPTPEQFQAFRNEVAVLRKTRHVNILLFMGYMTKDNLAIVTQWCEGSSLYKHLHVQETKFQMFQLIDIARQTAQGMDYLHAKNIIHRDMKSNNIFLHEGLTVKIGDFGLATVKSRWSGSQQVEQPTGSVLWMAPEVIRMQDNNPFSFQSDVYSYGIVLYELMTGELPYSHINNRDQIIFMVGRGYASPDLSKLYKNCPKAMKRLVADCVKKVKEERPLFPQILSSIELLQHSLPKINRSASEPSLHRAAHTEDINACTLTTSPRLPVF
Serine/threonine-protein kinase 33 (Homo sapiens), sequence (Q9BYT3 whole entry, looked up): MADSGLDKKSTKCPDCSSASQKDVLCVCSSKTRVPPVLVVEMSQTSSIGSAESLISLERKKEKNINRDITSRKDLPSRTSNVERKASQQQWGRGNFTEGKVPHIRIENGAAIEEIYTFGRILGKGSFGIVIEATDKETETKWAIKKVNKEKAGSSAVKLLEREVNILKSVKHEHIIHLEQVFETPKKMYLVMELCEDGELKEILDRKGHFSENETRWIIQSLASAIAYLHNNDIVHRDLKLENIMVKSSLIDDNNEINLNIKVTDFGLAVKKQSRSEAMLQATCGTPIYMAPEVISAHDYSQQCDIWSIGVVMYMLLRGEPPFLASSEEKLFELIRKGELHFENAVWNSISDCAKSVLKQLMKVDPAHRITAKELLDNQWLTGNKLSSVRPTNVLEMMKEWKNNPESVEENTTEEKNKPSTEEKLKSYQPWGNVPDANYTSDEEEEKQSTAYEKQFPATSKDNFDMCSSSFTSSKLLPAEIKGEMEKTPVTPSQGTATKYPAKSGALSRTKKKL
Mitogen-activated protein kinase 10 (Homo sapiens), sequence (P53779 whole entry): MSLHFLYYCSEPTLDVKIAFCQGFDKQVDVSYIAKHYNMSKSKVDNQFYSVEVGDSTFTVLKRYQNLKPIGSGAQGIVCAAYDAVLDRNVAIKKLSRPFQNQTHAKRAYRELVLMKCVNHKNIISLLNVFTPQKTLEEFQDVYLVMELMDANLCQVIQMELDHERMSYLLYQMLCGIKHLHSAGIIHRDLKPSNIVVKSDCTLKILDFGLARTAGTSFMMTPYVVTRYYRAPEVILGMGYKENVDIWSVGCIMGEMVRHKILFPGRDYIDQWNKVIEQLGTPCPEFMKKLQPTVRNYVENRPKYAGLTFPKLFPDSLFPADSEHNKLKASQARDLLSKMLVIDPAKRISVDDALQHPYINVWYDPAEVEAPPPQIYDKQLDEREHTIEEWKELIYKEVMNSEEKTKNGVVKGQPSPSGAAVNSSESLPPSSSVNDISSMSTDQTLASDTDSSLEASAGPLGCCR

| SMILES | inhibition [1] [%] | residual activity [2] [%] | residual activity [3] [%] | residual activity [4] [%] | residual activity [5] [%] | residual activity [6] [%] | residual activity [7] [%] | residual activity [8] [%] | residual activity [9] [%] | residual activity [10] [%] |
| --- | --- | --- | --- | --- | --- | --- | --- | --- | --- | --- |
| Cc1ccc2cc(-c3n[nH]c4ccc(NC5CCNC5)cc34)[nH]c2c1 (stereo not given) | 82 | 12 | 42 | 8 | 73 | 92 | 16 | 29 | 76 | 97 |
| Cc1ccc2cc(-c3n[nH]c4ccc(NC5CCN(Cc6ccccc6)CC5)cc34)[nH]c2c1 | 95 | 80 | 41 | 0 | 98 | 101 | 31 | 73 | 13 | 97 |
